“Also recorded” adds a separate entry of the source.
Tests used:
chondrocytes (BAC) = assay: BAC growth assay (chondrocyte cell proliferation, Coulter count); type: cell-based, bovine; settings: for effect on cell growth: 0-6 mM, serum 20%, FIG. 10; for effect on cell growth / effect on the proliferation of chondrocytes: BAC subculture 6; for effect on the proliferation of chondrocytes: 1 mg/ml, glucose 0.5 mg/ml, TGF-β 10 μg/ml, serum 10%, FIG. 8
Method: Cartilage slices were removed aseptically from bovine knee joint and digested with collagenase to obtain single cell chondrocytes. Both primary cultures and subcultures were established by procedures described previously (Chan C. and Anastassiades T., Biochem Cell Biol 74:233-240, 1996; Howard S. and Anastassiades T., J Rheumatol 20:2083-2094, 1993).For the growth assays, cells were seeded at 15,000 cells/well and 33,000 cells/well for the 24 and 6 well plates, respectively, in glucose free Dulbecco's modified Eagle's culture medium, base which was supplemented with glucose (1 mg/ml) and serum (10%). These cells were incubated in a humidified atmosphere of 95% air and 5% carbon dioxide at 37° C. On the following day, the medium was changed to fresh medium containing test materials of interest. The cells were harvested at time intervals and cell number determined using Coulter counter (Coulter Electronics Inc. Florida, USA). Results are expressed as the means of three replicate wells and each well was counted twice. The data are presented as mean ± SEM.
Initial studies examined the effect of 1 mg/ml of GlcN, GlcNac, GlcNpr and GlcNbu on the proliferation of chondrocytes (BAC subculture 6) maintained in medium supplemented with glucose (0.5 mg/ml), TGF-β (10 μg/ml) and serum (10%). […] The cells barely thrive at serum concentrations lower than 10% (data not shown).
Further experiments were carried out to determine whether the growth stimulation could be due to butyrate group or a mechanism solely dependent on GlcNbu. In this case, chondrocytes (BAC subculture 6) were maintained in culture in the presence of glucose (1 mg/ml), serum (20%) and various concentrations (0-6 mM) of sodium butyrate, GlcNbu and GlcN. […] Therefore, the growth stimulation observed is due to GlcNbu. The effect of GlcNbu at varying glucose medium concentrations (0-0.5 mg/ml) were evaluated using early and late subcultured chondrocytes.

[1] = humans, cited from earlier work
[2] = system: experimentally induced inflammatory arthritis in Lewis rats; assay: Streptococcal cell wall induced inflammatory arthritis model, clinical assessment of hind legs; type: in vivo, rat; settings: 18 days
Excerpt: The experimental arthritis was induced by injecting cell walls of streptococcal bateria intra-peritoneally into Lewis rats. The resulting arthritis leads to cartilage and bone destruction in the injected rat. This experimental model is considered to provide some of the most useful insights in the development of human inflammatory, destructive arthropathies.
Method: Inflammatory arthritis was induced in Lewis strain rats by a single intra-peritoneal injection of the streptococcal wall pepti-polysaccharide antigen, as described in Brahn E. “Animal models of rheumatoid arthritis. Clues to etiology and treatment.” Clin Orthop. 1991 Apr; (265): 42-53. Review. Van den Broek M F, van Bruggen M C, Simpson S A, Severijnen A J, van de Putte L B, van den Berg W B. “Flare-up reaction of streptococcal cell wall induced arthritis in Lewis and F344 rats: the role of T lymphocytes.” Clin Exp Immunol. 1990 Feb; 79 (2): 297-306. Chen W., Jin W, Cook M, Weiner H L, Wahl S M. “Oral delivery of group A streptococcal cell walls augments circulating TGF-beta and suppresses streptococcal cell wall arthritis.” J Immunol. 1998 Dec. 1; 161 (11): 6297-304. On the same day as the injection, the rats had their drinking water supplemented either with 5 mg or 50 mg of GlcN or GlcNBu in 400 ml of water. There were three rats in each of the above groups. The rats drank the water containing the above compounds in an unrestricted fashion. The drinking water was replenished, when finished, so that the rats drank the same concentrations of the compounds throughout the experimental observation period. Each animal consumed approximately between 20-30 ml of water each day for each of the groups. After 18 days of experimental observation, the rats' hind legs were visually inspected for clinical assessment of the development of arthritis.

bovine chondrocytes = settings: in vitro; cited from earlier work
dog with hip dysplasia = assay: Dog Study-2, dog with hip dysplasia, daily journal and video record; type: in vivo; settings: 500 mg per day on food, one week
Method: 1 Week administration to arthritic/dysplastic dogs @ 500 mg set daily dose. Daily Journal and Video record was kept as described under Dog Study-1.
The subject was a 16-year-old female labrador crossbreed which had hip dysplasia evident in both hind limbs due to either age or an injury sustained at the age of 9 years.
Phase 1 The MGD was administered at 500 mg per day for a period of one week in a solution poured onto food.

[3] = system: Bovine Articular Chondrocytes; assay: Glycosaminoglycan synthesis by Bovine Articular Chondrocytes (35S incorporation); type: cell-based; settings: 0.1 mM GlcNBu; 35S label 4 days; per well; control 82,000 CPM; FIG. 14
Method: Bovine articular chondrocytes were grown to confluency in 35 mm wells and labelled with ^35S for 4 days in the presence of different concentrations of GlcNBu. The Glycosaminoglycans (GAG) were isolated from the medium and the radioactivity incorporated into the isolated GAG was determined
With reference to FIG. 14, the results are expressed on a per well basis and represent the means and standard deviations from four replicate wells. […] The control (0 mM concentration of GlcNBu) is the first point on the left indicating 82,000 CPM and the lowest concentration of GlcNBu is 0.1 mM indicating 112,000 CPM.

[4] = system: mucopolysaccharides (glycosaminoglycans); settings: Biochem. Pharmacol. (1973) 22:3018; cited from earlier work
[5] = system: dog with osteoarthritis due to anterior cruciate ligament injury; assay: Dog Study-1, osteoarthritic dog, daily journal and video record; type: in vivo
Method: 1 Week administration to arthritic/dysplastic dogs @500 mg set daily dose. A Daily Journal and Video record was kept.
The subject was a 9-year-old female collie crossbreed which had osteoarthritis due to a prior left anterior cruciate ligament injury (a previous tear now repaired). […] The animal is currently medicated with glucosamine at 500 mg per day.
For both Phase 1 and Phase 2 a video diary of a few minutes of two or three of the animal's exercise periods and a daily journal of casual observations was kept.

## N[C@@H](C=O)[C@@H](O)[C@H](O)[C@H](O)CO [GlcN, 2-amino-2-deoxy-D-glucose, reference compound]
Chondrocytes (BAC); glucose 1 mg/ml
  effect on cell growth: decreased cell growth
Chondrocytes (BAC)
  effect on the proliferation of chondrocytes: inhibited cell growth compared to control
[1]; very large doses
  serum levels after oral or IV administration: serum levels cannot be detected
[2]; 5 mg in 400 ml drinking water
  clinical assessment of arthritis in hind legs: well-developed arthritis with swelling and redness in both of the hind lower legs
[2]; 50 mg in 400 ml drinking water
  clinical assessment of arthritis in hind legs: well-developed arthritis with swelling and redness in the right lower leg and less so in the left lower leg
Bovine chondrocytes
  growth or survival of chondrocytes: does not support growth or even survival of chondrocytes

## CC(=O)N[C@H]1C(O)O[C@H](CO)[C@@H](O)[C@@H]1O (stereo partly drawn) [GlcNac, N-acetylglucosamine, reference compound]
Chondrocytes (BAC)
  effect on the proliferation of chondrocytes: much reduced effect on cell growth
[1]; Clin. Ther. (1996) 18:1184
  half-life compared to glucosamine: longer half-life

## CCCC(=O)N[C@H]1C(O)O[C@H](CO)[C@@H](O)[C@@H]1O (stereo partly drawn) [GlcNbu, N-Butyryl-D-glucosamine (2-n-Butanamido-2-deoxy-D-glucopyranose)]
Chondrocytes (BAC); glucose 1 mg/ml
  effect on cell growth: increased cell growth
Chondrocytes (BAC)
  effect on the proliferation of chondrocytes: significantly stimulated cell growth
Chondrocytes (BAC); GlcNbu 0.4-10 mM, glucose 1 mg/ml, 10% vs 20% serum, FIG. 9
  cell growth at various serum concentrations: more increase in cell growth at 20% than 10% serum
Chondrocytes (BAC); glucose 0-0.5 mg/ml, early and late subcultured chondrocytes, FIGS. 11 and 12
  stimulation of cell growth at varying glucose medium concentrations: higher in the absence of glucose or very low glucose concentration
[2]; 5 mg in 400 ml drinking water
  clinical assessment of arthritis in hind legs: normal hind lower legs and no clinical evidence of arthritis
[2]; 50 mg in 400 ml drinking water
  clinical assessment of arthritis in hind legs: minimal swelling in the right lower leg and probably a normal left lower leg
Dog with hip dysplasia
  owner-observed mobility / behaviour: a period of improvement
[3]
  radioactivity incorporated into the GAG: 112,000 CPM

## CCC(=O)N[C@H]1C(O)O[C@H](CO)[C@@H](O)[C@@H]1O (stereo partly drawn) [GlcNpr, N-propionylglucosamine]
Chondrocytes (BAC)
  effect on the proliferation of chondrocytes: much reduced effect on cell growth
[4]
  incorporation of labeled glucosamine into mucopolysaccharides: inhibits the incorporation of labeled glucosamine into mucopolysaccharides

## CCCC(=O)[O-].[Na+] [sodium butyrate, reference compound]
Chondrocytes (BAC); glucose 1 mg/ml
  effect on cell growth: decreased cell growth

## N-Butyryl-D-glucosamine (2-n-Butanamido-2-deoxy-D-glucopyranose) [GlcNbu]
[5]; 500 mg per day on food, one week
  tolerability: tolerated at least at the same level as glucosamine
[5]; 500 mg per day, one week
  adverse reactions: no adverse reactions were observed
[5]; Phase 1, 500 mg per day, one week, listed as MGD
  protective effects (mobility/stiffness) compared to glucosamine: at least as good as glucosamine; also recorded: no appreciable difference from baseline
[5]; Phase 2, Day 7 after MGD discontinued, listed as MGD
  observation after withdrawal: recurrence of a slight limp; also recorded: much stiffer gait and a slight limp
Dog with hip dysplasia
  owner-observed mobility / behaviour: isolated examples of improvement
